Assay results published in patent publication EP4806894A1, “TNAP INHIBITORY COMPOUND AND USE THEREOF” (Rednvia Co., Ltd., priority 2023, dated 2025).
Where a name gives a salt, the structure may show the parent alone.

How the values were obtained:
[1] = target: T1, TNAP (Homo sapiens, UniProt P05186); test: TNAP inhibitory activity, colorimetric assay (alkaline phosphatase assay kit ab83369, pNPP substrate); type: biochemical; settings: TNAP enzyme, 2 hours at room temperature, absorbance 405 nm
T1 sequence (P05186 18-502 limits assumed): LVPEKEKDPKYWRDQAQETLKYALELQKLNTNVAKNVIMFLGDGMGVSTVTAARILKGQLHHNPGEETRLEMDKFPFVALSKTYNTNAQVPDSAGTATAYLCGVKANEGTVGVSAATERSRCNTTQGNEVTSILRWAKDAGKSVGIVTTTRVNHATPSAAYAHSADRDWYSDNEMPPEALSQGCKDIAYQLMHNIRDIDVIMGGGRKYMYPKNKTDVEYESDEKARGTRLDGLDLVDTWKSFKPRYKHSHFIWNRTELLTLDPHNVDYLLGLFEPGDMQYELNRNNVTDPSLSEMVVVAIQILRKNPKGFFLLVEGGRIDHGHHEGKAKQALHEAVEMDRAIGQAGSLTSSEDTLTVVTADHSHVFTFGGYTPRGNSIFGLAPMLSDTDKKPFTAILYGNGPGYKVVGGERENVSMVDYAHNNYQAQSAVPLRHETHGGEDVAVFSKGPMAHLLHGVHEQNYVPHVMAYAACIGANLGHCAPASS

[2] = system: saos-2 cells; test: Anticalcification efficacy in saos-2 cells (osteogenic medium, Alizarin Red staining); type: cell-based; settings: Homo sapiens, 168 h, test compound 1 µM, 7 days osteogenic medium, Alizarin Red absorbance 540 nm, read-out: calcification inhibition
Summary of the method: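 Saos-2 cells at 80–90% confluence induced for 7 days in osteogenic medium (DMEM, 100 nM dexamethasone, 10 mM β-glycerophosphate, 0.05 mM ascorbic acid), compound (0.5, 1, 5, 10 […]) added with each medium change. Alizarin Red staining eluted with cetylpyridinium chloride, A540 read; inhibition taken against OM-only absorbance.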

Row | SMILES | IC50 [1] [nM] | inhibition at 1 µM [2] [%]
1 | COc1ccc(-c2cnn(C(C)c3nc(C)no3)c2)cc1S(=O)(=O)Nc1cnc2c(c1)C(=O)NCC2 (stereo not drawn) [Example 70, 2-methoxy-5-(1-(1-(3-methyl-1,2,4-oxadiazole-5-yl)ethyl)-1H-pyrazole-4-yl)-N-(5-oxo-5,6,7,8-tetrahydro-1,6-naphthyridine-3-yl)benzenesulfonamide] | 100 to 1000 | ≥ 50
2 | COc1ccc(-c2cnn(C(C)c3nc(-c4ccc(F)cc4)no3)c2)cc1S(=O)(=O)Nc1cnc2c(c1)C(=O)NCC2 (stereo not drawn) [Example 71, 5-(1-(1-(3-(4-fluorophenyl)-1,2,4-oxadiazole-5-yl)ethyl)-1H-pyrazole-4-yl)-2-methoxy-N-(5-oxo-5,6,7,8-tetrahydro-1,6-naphthyridine-3-yl)benzenesulfonamide] | ≥ 1000 | < 0
3 | COc1ccc(-c2cnn(C(C)C)c2)cc1S(=O)(=O)Nc1cnc2c(c1)C(=O)NCC2 [Example 72, 5-(1-isopropyl-1H-pyrazole-4-yl)-2-methoxy-N-(5-oxo-5,6,7,8-tetrahydro-1,6-naphthyridine-3-yl)benzenesulfonamide] | 10 to 100 | ≥ 50
4 | COc1ccc(-c2cnn(C(F)(F)F)c2)cc1S(=O)(=O)Nc1cnc2c(c1)C(=O)NCC2 [Example 73, 2-methoxy-N-(5-oxo-5,6,7,8-tetrahydro-1,6-naphthyridine-3-yl)-5-(1-(trifluoromethyl)-1H-pyrazole-4-yl)benzenesulfonamide] | 100 to 1000 | ≥ 50
5 | COc1ccc(-c2cnn(C3CC3)c2)cc1S(=O)(=O)Nc1cnc2c(c1)C(=O)NCC2 [Example 74, 5-(1-cyclopropyl-1H-pyrazole-4-yl)-2-methoxy-N-(5-oxo-5,6,7,8-tetrahydro-1,6-naphthyridine-3-yl)benzenesulfonamide] | 100 to 1000 | ≥ 50
6 | COc1ccc(-c2cnn(S(C)(=O)=O)c2)cc1S(=O)(=O)Nc1cnc2c(c1)C(=O)NCC2 [Example 75, 2-methoxy-5-(1-(methylsulfonyl)-1H-pyrazole-4-yl)-N-(5-oxo-5,6,7,8-tetrahydro-1,6-naphthyridine-3-yl)benzenesulfonamide] | 100 to 1000 | ≥ 50
7 | COc1ccc(-c2cnn(C3CCOCC3)c2)cc1S(=O)(=O)Nc1cnc2c(c1)C(=O)NCC2 [Example 76, 2-methoxy-N-(5-oxo-5,6,7,8-tetrahydro-1,6-naphthyridine-3-yl)-5-(1-(tetrahydro-2H-pyran-4-yl)-1H-pyrazole-4-yl)benzenesulfonamide] | 100 to 1000 | ≥ 50
8 | COc1ccc(-c2ccc(F)nc2)cc1S(=O)(=O)Nc1cnc2c(c1)C(=O)NCC2 [Example 77, 5-(6-fluoropyridine-3-yl)-2-methoxy-N-(5-oxo-5,6,7,8-tetrahydro-1,6-naphthyridine-3-yl)benzenesulfonamide] | 100 to 1000 | ≥ 50
9 | COc1ccc(-c2cnc(N)nc2C(F)(F)F)cc1S(=O)(=O)Nc1cnc2c(c1)C(=O)NCC2 [Example 78, 5-(2-amino-4-(trifluoromethyl)pyrimidine-5-yl)-2-methoxy-N-(5-oxo-5,6,7,8-tetrahydro-1,6-naphthyridine-3-yl)benzenesulfonamide] | ≥ 1000 | < 0
10 | COc1ccc(-c2cnn(C3COC3)c2)cc1S(=O)(=O)Nc1cnc2c(c1)C(=O)NCC2 [Example 79, 2-methoxy-5-(1-(oxetane-3-yl)-1H-pyrazole-4-yl)-N-(5-oxo-5,6,7,8-tetrahydro-1,6-naphthyridine-3-yl)benzenesulfonamide] | 100 to 1000 | ≥ 50
11 | COc1ccc(-c2cnn(CCO)c2)cc1S(=O)(=O)Nc1cnc2c(c1)C(=O)NCC2 [Example 80, 5-(1-(2-hydroxyethyl)-1H-pyrazole-4-yl)-2-methoxy-N-(5-oxo-5,6,7,8-tetrahydro-1,6-naphthyridine-3-yl)benzenesulfonamide] | 100 to 1000 | ≥ 50
12 | COc1ccc(-c2cn(C(C)C)nc2C(F)(F)F)cc1S(=O)(=O)Nc1cnc2c(c1)C(=O)NCC2 [Example 81, 5-(1-isopropyl-3-(trifluoromethyl)-1H-pyrazole-4-yl)-2-methoxy-N-(5-oxo-5,6,7,8-tetrahydro-1,6-naphthyridine-3-yl)benzenesulfonamide] | 10 to 100 | ≥ 50
13 | COc1ccc(Br)cc1S(=O)(=O)Nc1cnc2c(c1)C(=O)N(C)CC2 [Example 87, 5-bromo-2-methoxy-N-(6-methyl-5-oxo-5,6,7,8-tetrahydro-1,6-naphthyridine-3-yl)benzenesulfonamide] | 100 to 1000 | < 0
14 | COc1ccc(Br)cc1S(=O)(=O)Nc1cnc2c(c1)CN(C(=O)OC(C)(C)C)CC2 [Example 88, tert-butyl 3-((5-bromo-2-methoxyphenyl)sulfonamido)-7,8-dihydro-1,6-naphthyridine-6(5H)-carboxylate] | 100 to 1000 | ≥ 50
15 | O=S(=O)(Nc1cnc2c(c1)CNCC2)c1cc(F)ccc1Br [Example 91, 5-fluoro-2-bromo-N-(5,6,7,8-tetrahydro-1,6-naphthyridine-3-yl)benzenesulfonamide hydrochloride] | ≥ 1000 | < 0
16 | COc1ccc(Br)cc1S(=O)(=O)Nc1cnc2c(c1)CNCC2 [Example 93, 5-bromo-2-methoxy-N-(5,6,7,8-tetrahydro-1,6-naphthyridine-3-yl)benzenesulfonamide hydrochloride] | 10 to 100 | ≥ 50

The next lines start with results.

Row | IC50 [1] [nM] | SMILES | inhibition at 1 µM [2] [%]
17 | ≤ 10 | CCn1cc(-c2ccc(OC)c(S(=O)(=O)Nc3cnc4c(c3)C(=O)NCC4)c2)c(C(F)(F)F)n1 [Example 82, 5-(1-ethyl-3-(trifluoromethyl)-1H-pyrazole-4-yl)-2-methoxy-N-(5-oxo-5,6,7,8-tetrahydro-1,6-naphthyridine-3-yl)benzenesulfonamide] | ≥ 50
18 | 10 to 100 | COc1ccc(-c2cnoc2)cc1S(=O)(=O)Nc1cnc2c(c1)C(=O)NCC2 [Example 83, 5-(isoxazole-4-yl)-2-methoxy-N-(5-oxo-5,6,7,8-tetrahydro-1,6-naphthyridine-3-yl)benzenesulfonamide] | ≥ 50
19 | 10 to 100 | COc1ccc(-c2c(C)noc2C)cc1S(=O)(=O)Nc1cnc2c(c1)C(=O)NCC2 [Example 84, 5-(3,5-dimethylisoxazole-4-yl)-2-methoxy-N-(5-oxo-5,6,7,8-tetrahydro-1,6-naphthyridine-3-yl)benzenesulfonamide] | ≥ 50
20 | 100 to 1000 | COc1ccc(-c2cnn(C3CCN(C(=O)OC(C)(C)C)CC3)c2)cc1S(=O)(=O)Nc1cnc2c(c1)C(=O)NCC2 [Example 85, tert-butyl 4-(4-(4-methoxy-3-(N-(5-oxo-5,6,7,8-tetrahydro-1,6-naphthyridine-3-yl)sulfamoyl)phenyl)-1H-pyrazole-1-yl)piperidine-1-carboxylate] | < 0
21 | 100 to 1000 | COc1ccc(-c2cnn(C3CCNCC3)c2)cc1S(=O)(=O)Nc1cnc2c(c1)C(=O)NCC2 [Example 86, 2-methoxy-N-(5-oxo-5,6,7,8-tetrahydro-1,6-naphthyridine-3-yl)-5-(1-(piperidine-4-yl)-1H-pyrazole-4-yl)benzenesulfonamide hydrochloride] | < 0
22 | 10 to 100 | COc1ccc(OC)c(S(=O)(=O)Nc2cnc3c(c2)CN(C(=O)OC(C)(C)C)CC3)c1 [Example 89, tert-butyl 3-((2,5-dimethoxyphenyl)sulfonamido)-7,8-dihydro-1,6-naphthyridine-6(5H)-carboxylate] | ≥ 50
23 | 100 to 1000 | COc1ccc(F)cc1S(=O)(=O)Nc1cnc2c(c1)CNCC2 [Example 90, 5-fluoro-2-methoxy-N-(5,6,7,8-tetrahydro-1,6-naphthyridine-3-yl)benzenesulfonamide hydrochloride] | 0 to 50
24 | 10 to 100 | COc1ccc(Cl)cc1S(=O)(=O)Nc1cnc2c(c1)CNCC2 [Example 92, 5-chloro-2-methoxy-N-(5,6,7,8-tetrahydro-1,6-naphthyridine-3-yl)benzenesulfonamide hydrochloride] | ≥ 50
25 | 10 to 100 | COc1ccc(OC)c(S(=O)(=O)Nc2cnc3c(c2)CNCC3)c1 [Example 94, 2,5-dimethoxy-N-(5,6,7,8-tetrahydro-1,6-naphthyridine-3-yl)benzenesulfonamide hydrochloride] | ≥ 50
26 | 100 to 1000 | CCOC(=O)N1CCc2ncc(NS(=O)(=O)c3cc(F)ccc3OC)cc2C1 [Example 95, ethyl3-((5-fluoro-2-methoxyphenyl)sulfonamido)-7,8-dihydro-1,6-naphthyridine-6(5H)-carboxylate] | ≥ 50
27 | 10 to 100 | CCOC(=O)N1CCc2ncc(NS(=O)(=O)c3cc(Cl)ccc3OC)cc2C1 [Example 96, ethyl3-((5-chloro-2-methoxyphenyl)sulfonamido)-7,8-dihydro-1,6-naphthyridine-6(5H)-carboxylate] | ≥ 50
